Laboratory results reported in paper PMC9307952, “Lipoate protein ligase B primarily recognizes the C8-phosphopantetheine arm of its donor substrate and weakly binds the acyl carrier protein” (The Journal of Biological Chemistry, 2022).

How the values were obtained:
[1] = target: MmLipT2 (mice LipT2) (Mus musculus, UniProt Q9D009); details: 75 μM C8-CoA, 25 μM GcvH, 50 mM Tris-HCl, 500 mM NaCl, pH 8.0, 37 °C
[2] = target: E. coli LipB (EcLipB) (Escherichia coli, UniProt P60720); details: CoA:LipB 10:1 (STD, 283 K) or 8:1 (31P, 298 K), 50 mM Tris, 200 mM NaCl, pH 7.8
Chain of E. coli LipB (EcLipB) (P60720 whole entry): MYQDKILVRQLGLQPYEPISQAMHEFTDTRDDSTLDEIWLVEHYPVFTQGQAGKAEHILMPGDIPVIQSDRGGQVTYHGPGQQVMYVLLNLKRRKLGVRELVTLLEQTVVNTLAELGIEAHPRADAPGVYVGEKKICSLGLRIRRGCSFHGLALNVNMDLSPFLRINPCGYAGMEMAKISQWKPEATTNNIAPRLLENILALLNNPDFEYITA

Chain of MmLipT2 (mice LipT2) (Q9D009 whole entry): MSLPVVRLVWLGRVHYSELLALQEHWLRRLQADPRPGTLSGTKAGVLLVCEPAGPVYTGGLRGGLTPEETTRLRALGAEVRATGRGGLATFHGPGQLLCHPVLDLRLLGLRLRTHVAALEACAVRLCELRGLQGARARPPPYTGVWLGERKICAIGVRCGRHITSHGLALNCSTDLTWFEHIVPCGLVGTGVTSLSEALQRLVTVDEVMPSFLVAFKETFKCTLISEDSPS

CCCCCCCC(=O)SCCNC(=O)CCNC(=O)[C@H](O)C(C)(C)COP(=O)(O)OP(=O)(O)OC[C@H]1O[C@@H](n2cnc3c(N)ncnc32)[C@H](O)[C@@H]1OP(=O)(O)O [C8-CoA]
octanoyl transfer to E. coli GcvH, SDS-PAGE band shift and HPLC [1]: MmLipT2 also successfully converted E. coli GcvH using C8-CoA as a donor substrate

CC(C)(COP(=O)(O)OP(=O)(O)OC[C@H]1O[C@@H](n2cnc3c(N)ncnc32)[C@H](O)[C@@H]1OP(=O)(O)O)[C@@H](O)C(=O)NCCC(=O)NCCS [CoA]
1H STD NMR; 31P NMR [2]: suggesting binding of the adenosine ring
